# Entries after “also recorded” stand apart in the source; their conditions may differ.
# What was measured:
# [1] = tested on: C57 B1/6 mice; test: Open field test, C57 B1/6 mice; assay type: in vivo, male C57 B1/6 mice; conditions: for Central activity / Crosses of Squires / Emotionality (N. of defec.) / Total locomotor activity / Vert. stands: C57 B1/6, i.p.
# Procedure: ESR indices were evaluated as changes in mice ambulations, defecations and motor activity in an "open field" test ([…]., Bull. Exp. Biol. […] Compound 1 was injected in different doses intraperitoneally 45 min. before test.
# [2] = tested on: locomotor activity in mice; test: Locomotor activity in mice (actometer); assay type: in vivo, outbred male mice; conditions: for The number of movements for 3 min., horizontal activity / The number of movements for 3 min., vertical activity: i.p.
# Procedure: (§1) Compounds according to the present invention were checked for their influence on gross behaviour. The experiments described herein (Examples 11, 12, 13, 14, and 15) were carried out using outbred male mice weighing approximately 18-24 g. Each substance was administered intraperitoneally 45 min. before the experiment. Locomotor activity was estimated individually for each animal for 3 min. using an actometer `Era-1` (Russia).
# [3] = tested on: BALB/c mice; test: Open field test, BALB/c mice; assay type: in vivo, male BALB/c mice; conditions: for Central activity / Crosses of Squires / Emotionality (N. of defec.) / Total locomotor activity / Vert. stands: BALB/c, i.p.
# Procedure: The effects of Compound 1 on different emotional stress reactions (ESR) in male mice of C57 B1/6 and BALB/c strains were studied. ESR indices were evaluated as changes in mice ambulations, defecations and motor activity in an "open field" test (Seredenin S. B., Vedernikov, A. A., Bull. Exp. Biol. Med., 100, No. 7, 38-40 (1979), which is incorporated herein by reference). Compound 1 was injected in different doses intraperitoneally 45 min. before test.
# [4] = tested on: aggressive behavior in mice; test: Antiaggressive activity (threshold of aggressive behavior, electrified floor); assay type: in vivo, outbred male mice
# Procedure: as §1
# The effect of Compound 1 on the threshold of the aggressive behavior was determined in the experiment on outbred mice (R. Tedesci et al., J. Pharmacol. Exp. Ther., 125, 28-34, (1959), which is incorporated herein by reference). The paired mice were placed on the electrified floor. The strength of the current, which provoked the fighting, was recorded.
# [5] = tested on: convulsive effect of pentylenetetrazole in mice; test: Convulsive effect of pentylenetetrazole; assay type: in vivo, outbred male mice
# Procedure: as §1
# The influence of Compound 1 on the latency of convulsions and on the duration of animals' lives after pentylenetetrazole (130 mg/kg subcutaneously) was studied in outbred mice.
# [6] = tested on: motor behavior in mice; test: Horizontal wire test (coordination of movements and myorelaxation); conditions: mice
# Procedure: The influence of Compound 1 on the motor behavior was studied according to a "rotating rod" test and a "horizontal wire" test in outbred male mice (18-22 g). A rotating rod (2 cm diameter and 5 rpm speed) was used. Acquisition was defined as the ability to remain on the rotating rod for 2 min. Each animal had two trials. According to the "horizontal wire" test a mouse was hung on the wire (0.3 cm. diameter, wire was fixed horizontally 40 cm above the floor) by the forepaws. The ability to pull the hind legs up to the wire for 2 min. was a criterion of test performance.
# [7] = tested on: rat behavior in Vogel conflict test; test: Vogel conflict test (anxiolytic activity, punished responses in water-deprived rats); assay type: in vivo, outbred male albino rats
# From the text: Compounds according to the present invention were checked for their anxiolytic activity. Behaviour suppressed by punishment is a very reliable indicator of the anxiolytic activity of drugs. A variant of the conflict situation test was used to reveal anxiety in water-deprived rats whose licking was suppressed by shock (see Vogel et al., Phychopharmacologia, 21, 1-7 (1971); J. E. Barrett in Animal Models in Psychopharmacology, Advances in Pharmacological Sciences, 1991; and Birkhauser Verlag, Basel, p. 37.52, Molodavkin et al., Exper. Clin. Pharmacol., 56, (1993), which are incorporated herein by reference).
# The experiments were carried out using outbred male albino rats (180-220 g). This experiment involved previous training of water-deprived rats to drink water from a trough. Next day electrical stimulation was given delivering 0.5 mA electric shocks through the trough and metal grid floor of the experimental chamber. A conflict situation was created by clashing motivations (survival and self defense). The degree of anxiolytic activity was estimated by the measurement of the amount of punished licks for 10 min. Each compound was administered intraperitoneally 45 min. before the conflict test.
# [8] = tested on: memory formation in rats; test: Passive avoidance test, step-through (memory formation, retention); assay type: in vivo, outbred male albino rats
# Procedure: The influence of Compound 1 on memory formation was studied in a passive avoidance test, step-through paradigm (equipment of Laffaette Co., USA). The experiments were carried out on outbred male albino rats ([…]). Compound 1 and other drugs were administered intraperitoneally 45 min. before the passive avoidance training. The retention was tested 24 hours later learning (painful electroshock in the dark compartment) by the measurement of the time spent in the dark compartment for 3 min.
# [9] = 10 mg/kg + pentylenetetrazole 130 mg/kg s.c.
# [10] = rat, 5.0 mg/kg i.p., retention 24 hours later, 3 min
smiles,measurement,setting,value
"O=C(O)CCC(=O)O.c1cc2n(c1)CCNC2 [Compound 1, 1,2,3,4-tetrahydropyrrolo-[1,2-a]-pyrazine hydrosuccinate]","Open field behavior of C57 B1/6 mice, in words",[1]; 5 mg/kg i.p.,caused the reduction of total ambulations inhibiting central and vertical activity. The number of defecations was not changed
same,Central activity,[1]; 0.1 mg/kg,24.2 ± 5.2
same,Crosses of Squires,[1]; 0.1 mg/kg,74.6 ± 7.6
same,Emotionality (N. of defec.),[1]; 0.1 mg/kg,1.0 ± 0.53
same,Total locomotor activity,[1]; 0.1 mg/kg,114.6 ± 12.1
same,Vert. stands,[1]; 0.1 mg/kg,15.8 ± 2.5
same,Central activity,[1]; 1.0 mg/kg,29.9 ± 5.2
same,Crosses of Squires,[1]; 1.0 mg/kg,65.6 ± 5.5
same,Emotionality (N. of defec.),[1]; 1.0 mg/kg,0.8 ± 0.39
same,Total locomotor activity,[1]; 1.0 mg/kg,110.6 ± 10.9
same,Vert. stands,[1]; 1.0 mg/kg,15.1 ± 2.0
same,Central activity,[1]; 5.0 mg/kg,11.1 ± 1.6
same,Crosses of Squires,[1]; 5.0 mg/kg,51.7 ± 5.3
same,Emotionality (N. of defec.),[1]; 5.0 mg/kg,0.22 ± 0.22
same,Total locomotor activity,[1]; 5.0 mg/kg,71.7 ± 6.9
same,Vert. stands,[1]; 5.0 mg/kg,7.8 ± 1.5
same,"Sedation in C57B1/6 mice, in words","[1]; anxiolytic dose range, open field test",does not cause sedation in C57B1/6 mice; also recorded: anxiolytic effect in BALB/c mice does not coincide with sedative effect in C57B 1/6 mice
same,"Influence on spontaneous motor activity, in words",[2]; 0.1-0.3 mg/kg i.p.,neither stimulated nor depressed the spontaneous motor activity
same,"The number of movements for 3 min., horizontal activity",[2]; 0.1 mg/kg,650.8 ± 12.5
same,"The number of movements for 3 min., vertical activity",[2]; 0.1 mg/kg,24.7 ± 2.5
same,"The number of movements for 3 min., horizontal activity",[2]; 0.3 mg/kg,657.7 ± 15.5
same,"The number of movements for 3 min., vertical activity",[2]; 0.3 mg/kg,25.2 ± 4.1
same,"Open field behavior of BALB/c mice, in words",[3]; 2.5 and 5.0 mg/kg i.p.,"produces activating (anxiolytic) effect in initially low active BALB/c mice; also recorded: caused ambulation increase elevating the central activity, and defecation decrease in BALB/c mice"
same,Central activity,[3]; 0.1 mg/kg,0.0
same,Crosses of Squires,[3]; 0.1 mg/kg,21.2 ± 5.8
same,Emotionality (N. of defec.),[3]; 0.1 mg/kg,0.5 ± 0.17
same,Total locomotor activity,[3]; 0.1 mg/kg,21.2 ± 5.8
same,Vert. stands,[3]; 0.1 mg/kg,0.0
same,Central activity,[3]; 1.0 mg/kg,0.4 ± 0.3
same,Crosses of Squires,[3]; 1.0 mg/kg,25.6 ± 4.6
same,Emotionality (N. of defec.),[3]; 1.0 mg/kg,1.2 ± 0.13
same,Total locomotor activity,[3]; 1.0 mg/kg,26.1 ± 4.6
same,Vert. stands,[3]; 1.0 mg/kg,0.1 ± 0.1
same,Central activity,[3]; 5.0 mg/kg,2.4 ± 0.9
same,Crosses of Squires,[3]; 5.0 mg/kg,29.8 ± 5.2
same,Emotionality (N. of defec.),[3]; 5.0 mg/kg,0.45 ± 0.11
same,Total locomotor activity,[3]; 5.0 mg/kg,33.0 ± 6.1
same,Vert. stands,[3]; 5.0 mg/kg,0.9 ± 0.5
same,"Effect on threshold of aggressive response, in words",[4],increase the threshold of aggressive response; also recorded: able to enhance the threshold of aggressive response
same,Aggression threshold,[4]; 0.5 mg/kg i.p.,67.2 ± 1.7 V
same,Aggression threshold,[4]; 5.0 mg/kg i.p.,90.8 ± 4.9 V
same,Duration of animal survival,[5]; [9],7.3 ± 1.0 min
same,Latency of clon.,[5]; [9],3.35 ± 0.7 min
same,Latency of ton.,[5]; [9],7.06 ± 1.0 min
same,"Effect on latency of convulsions and animal survival after pentylenetetrazole, in words",[5]; pentylenetetrazole 130 mg/kg subcutaneously,increase the duration of animals' survival after pentylenetetrazole injection; also recorded: causes prolongation of the latency of convulsions and of animal survival after pentylenetetrazole
same,"Disturbances according to horizontal wire test, effect in %",[6]; dose 5.0,0%
same,"Disturbances according to horizontal wire test, effect in %",[6]; dose 10.0,0%
same,"Disturbances according to horizontal wire test, effect in %",[6]; dose 20.0,0%
same,"Disturbances according to horizontal wire test, effect in %",[6]; dose 40.0,0%
same,"Disturbances according to horizontal wire test, effect in %",[6]; dose 80.0,0%
same,"Disturbances according to horizontal wire test, effect in %",[6]; dose 250.0,0%
same,"Anxiolytic effectiveness after chronic administration, in words",[7]; 5 mg/kg i.p. once daily for 40 days,anxiolytic effectiveness of Compound 1 is preserved after its chronic administration
same,The number of punished responses,"[7]; rat, 2.0 mg/kg i.p., 45 min before test, Table 1",43.52 ± 14.8
same,The number of punished responses,"[7]; rat, acute administration, 5 mg/kg, Table 3",49.52 ± 15.91
same,The number of punished responses,"[7]; rat, chronic administration, 5 mg/kg i.p. once daily for 40 days, Table 3",85.8 ± 6.7
same,The number of punished responses,"[7]; rat, i.p., dose 0.5 mg/kg, Table 2",49.88 ± 19.27
same,The number of punished responses,"[7]; rat, i.p., dose 1.0 mg/kg, Table 2",41.29 ± 16.71
same,The number of punished responses,"[7]; rat, i.p., dose 2.0 mg/kg, Table 2",43.52 ± 14.8
same,The number of punished responses,"[7]; rat, i.p., dose 5.0 mg/kg, Table 2",29.88 ± 13.13
same,The number of punished responses,"[7]; rat, i.p., dose 10.0 mg/kg, Table 2",30.88 ± 10.93
same,"Anxiolytic effect in Vogel conflict test, in words","[7]; rat, i.p., Compound 1 vs diazepam: 0.5-2 mg/kg vs 1 and 2 mg/kg",increase the amount of punished responses in a Vogel conflict test after acute and chronic administration; also recorded: displayed more anxiolytic effect than diazepam
same,"Influence on learning and memory formation, in words",[8]; passive avoidance,able to facilitate memory trace formation; also recorded: able to facilitate the learning ability: the time spent in the dark compartment was significantly decreased
same,The time spent in dark compartment,[8]; [10],15.9 ± 3.4 s
same,The time spent in light compartment,[8]; [10],164.1 ± 9.4 s

# Source: patent US5378846A, “1,2,3,4-tetrahydropyrrolo-[1,2-a]-pyrazine derivatives” (Russian-American Institute For New Drug Development, priority 1993, dated 1995)
